Reference: patent US11926596B2, “Inhibitors of Rho associated coiled-coil containing protein kinase” (KADMON CORPORATION, LLC, priority 2017, dated 2024)
Read-outs that look alike come from different tables or passages of the source.

Columns and labels:
[1] = target: T1, recombinant ROCK2 (amino acids 1-552) (Homo sapiens, UniProt O75116); test: Z'-lyte kinase assay, ROCK2; format: biochemical
T1 construct: ROCK2 (amino acids 1-552) proteins were purchased from ThermoFisher Scientific; purchased ThermoFisher Scientific
T1 sequence (O75116 1-552): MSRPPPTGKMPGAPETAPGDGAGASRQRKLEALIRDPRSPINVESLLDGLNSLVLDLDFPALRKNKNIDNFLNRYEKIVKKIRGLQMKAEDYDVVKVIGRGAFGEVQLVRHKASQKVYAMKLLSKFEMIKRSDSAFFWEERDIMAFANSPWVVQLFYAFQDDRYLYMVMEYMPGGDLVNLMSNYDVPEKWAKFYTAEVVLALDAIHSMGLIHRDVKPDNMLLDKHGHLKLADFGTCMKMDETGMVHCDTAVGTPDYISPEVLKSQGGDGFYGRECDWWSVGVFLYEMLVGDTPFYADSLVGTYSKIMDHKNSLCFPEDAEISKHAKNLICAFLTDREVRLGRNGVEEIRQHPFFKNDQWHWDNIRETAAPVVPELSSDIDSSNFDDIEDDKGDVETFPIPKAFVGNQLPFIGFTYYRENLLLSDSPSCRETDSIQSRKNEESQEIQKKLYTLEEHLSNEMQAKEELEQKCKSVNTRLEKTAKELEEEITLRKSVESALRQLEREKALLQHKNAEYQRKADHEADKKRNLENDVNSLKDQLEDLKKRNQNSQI
Protocol: (§1) Determination of compounds ROCK inhibitory activity in vitro (Z'lyte assay): recombinant ROCK1 (amino acids 1-535) and ROCK2 (amino acids 1-552) proteins were purchased from ThermoFisher Scientific. Compounds activities were measured by Z′-lyte kinase kit (ThermoFisher Scientific) and IC50s were calculated.
(§2) Table 2, below, provides in vitro and cellular inhibition of ROCKs by compounds of the invention. Compounds activities were measured by Z′-lyte kinase kit (ThermoFisher Scientific). […] IC50s were calculated using the GraphPad Prism software with kinase activities data that were collected from points 9 serial dilution of compounds treatment. The ROCK inhibition in A7R5 cells and NIH3T3 (Acta2-Luc) cells was performed as described above.

[2] = target: T2, recombinant ROCK1 (amino acids 1-535) (Homo sapiens, UniProt Q13464); test: Z'-lyte kinase assay, ROCK1; format: biochemical
T2 construct: recombinant ROCK1 (amino acids 1-535) and ROCK2; purchased ThermoFisher Scientific
T2 sequence (Q13464 1-535): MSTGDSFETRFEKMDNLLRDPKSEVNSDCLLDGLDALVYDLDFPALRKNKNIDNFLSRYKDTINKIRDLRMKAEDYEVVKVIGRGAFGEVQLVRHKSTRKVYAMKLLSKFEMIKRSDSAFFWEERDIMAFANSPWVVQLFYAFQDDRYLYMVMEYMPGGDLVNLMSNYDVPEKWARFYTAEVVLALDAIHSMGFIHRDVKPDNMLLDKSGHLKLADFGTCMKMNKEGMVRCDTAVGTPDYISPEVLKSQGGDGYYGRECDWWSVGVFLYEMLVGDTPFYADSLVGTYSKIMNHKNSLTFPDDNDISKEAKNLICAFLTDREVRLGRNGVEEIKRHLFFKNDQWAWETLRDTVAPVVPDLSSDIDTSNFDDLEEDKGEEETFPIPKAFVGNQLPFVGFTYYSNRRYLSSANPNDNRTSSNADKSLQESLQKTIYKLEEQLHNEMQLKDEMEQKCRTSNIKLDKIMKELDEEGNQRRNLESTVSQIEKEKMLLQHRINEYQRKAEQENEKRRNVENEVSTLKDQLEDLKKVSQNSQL
Protocol: as §1, §2

[3] = system: phospho-myosin light chains (ppMlc, Thr18/Ser19) in A7R5 cells; test: A7R5 in-cell ELISA, phospho-myosin light chain; format: cell-based, rat; conditions: Rattus norvegicus
Protocol: Determination of compounds ROCK inhibitory activity in A7R5 cells: rat aortic smooth muscle cell line A7R5 cells were maintained and treated in DMEM medium with 10% of fetal bovine serum. Cells were seeded with density of 5,000 cells/well in 96-well plates for 24 hours and subsequently treated 90 min with testing compounds. Cells were then fixed and processed according to the In-Cell ELISA Colorimetric Detection Kit manual (Thermo Scientific). Cellular phospho-myosin light chains (ppMlc, Thr18/Ser19) levels were determined after treatments of DMSO control or test compounds using the In-Cell ELISA kit. The percent inhibition rate was calculated by applying the data obtained with 1 μM (or 10 μM) compound treatment to the formula, [1-(compound/DMSO)]×100%. ppMlc data obtained with 9 points 2-fold serial dilution of compounds were applied to the nonlinear regression curve fit function of the GraphPad Prism software to calculate the In cell IC50s.
A7R5 cells were treated with 9 points 2 fold serial dilution of compounds and ppMlc (T18/S19) levels were determined in order to calculate cellular IC50s of the compounds.
Two steps of measurements were adopted for pMLC/A7R5 IC50. Percent inhibition rates were calculated with a single dose (1 μM or 10 μM) compounds treatment to screen for active compounds and then cellular IC50s were measured only in compounds that have over 50% of inhibition rates.

[4] = system: luciferase reporter driven by the human ACTA2 gene promoter in NIH3T3 cells; test: NIH3T3 cells Acta2-promoter driven-luciferase assay; format: cell-based; conditions: plus TGF 1, 24 hr, read-out: NIH3T3, Acta2-luc, IC50
Protocol: NIH3T3 cells Acta2-promoter driven-luciferase assay: A NIH3T3 cell line stably expressing a luciferase reporter driven by the human ACTA2 gene promoter (−1000-1 bp) was established (NIH3T3-Acta2-luciferase). The cells were plated to confluence and treated with the test compounds plus TGF 1 for 24 hr. Cells were then lysed and luciferase activity was measured using the LightSwitch luciferase kit from Active Motif.

[5] = system: ROCK target MYPT1 phosphorylation in HCT116 ROCK1KO and ROCK2KO cells; test: pMypt (T853) western blotting in HCT116 ROCK1KO and ROCK2KO cells; format: cell-based; conditions: 110 nM, 90 min
Protocol: FIG. 2. […] HCT116 cells with either a ROCK1 or ROCK2 knockout (ROCK1KO and ROCK2KO, respectively) were treated with the inhibitor for 90 min and pMypt (T853) levels were visualized by western blotting.
A CRISPR/CAS9 system was used to create HCT116 cells containing a knock out for either ROCK1 or ROCK2. The ROCK1KO and ROCK2KO cells were treated with the Example 2 compound for 90 min and pMypt (T853) levels were visualized by western blotting.

[6] = system: Human oligodendrocyte/neuron progenitor cells; test: Human oligodendrocyte/neuron progenitor cell differentiation (Nestin/MAP2 staining); format: cell-based; conditions: cultured 2 & 14 days with or without inhibitor
Protocol: FIG. 3. Human oligodendrocyte/neuron progenitor cells were cultured in vitro with or without ROCK inhibitor (Example 2 compound) for 2 & 14 days. Nestin and MAP2 proteins were visualized by staining with commercial antibodies to identify different stages of neuronal cell differentiation.
Human oligodendrocyte/neuron progenitor cells were cultured in vitro with or without ROCK inhibitor for 2 & 14 days. Nestin and MAP2 proteins were visualized by staining with commercial antibodies to identify different stages of neuronal cell differentiation.

[7] = system: rat oligodendrocytes with rat dorsal root ganglia (DRG) explants; test: Rat oligodendrocytes with rat dorsal root ganglia (DRG) explants co-culture; format: cell-based
From the text: At the same time, the ROCK inhibitor also facilitated axonal support of oligodentrocye by organized manner, which was visualized by staining the mature oligodendrocyte marker MBP.

[8] = Mouse pharmacokinetic study, plasma and brain distribution 2 hours after dosing; format: in vivo; conditions: for concentration at 2 h / Kp at 2 h: 2 hours post-dose; for Kp at 2 h: brain/plasma, read-out: Brain/Plasma Ratio
Protocol: In a mouse pharmacokinetic study, 2 hours after dosing, animal tissues were harvested to determine the compound distribution.

[9] = Brain and plasma concentrations in mouse by HPLC/MS/MS after 2.5 mg/kg IV; format: in vivo; conditions: for concentration at 0.25 h / concentration at 2 h: iv; for Kp at 0.25 h / Kp at 2 h: brain/plasma; for Kp at 0.25 h: read-out: Mean Brain/Plasma Ratio at 0.25 hr; for Kp at 2 h: read-out: Mean Brain/Plasma Ratio at 2 hr
Protocol: Brain and plasma concentrations of select ROCK inhibitors were also evaluated in mouse by HPLC/MS/MS at 15 min and 2 hrs following 2.5 mg/kg IV drug administration.

[10] = cited from earlier work
[11] = system: sAPPP; conditions: direct i.p. injection into hippocampus, rodent model of AD; cited from earlier work
[12] = 1.5 h, A7R5 cells, 90 min, read-out: pMLC IC50 A7R5
[13] = A7R5 cells, ppMlc (T18/S19), 9 points 2 fold serial dilution, read-out: ppMIc IC50
[14] = brain, 2.5 mg/kg, read-out: Mean Conc. at 0.25 hr, Brain
[15] = plasma, 2.5 mg/kg, read-out: Mean Conc. at 0.25 hr, Plasma
[16] = plasma, 2.5 mg/kg, read-out: Mean Conc. at 2 hr, Plasma

SMILES | IC50 [1] [nM] | inhibition at 3 µM ([1]; read-out: ROCK2 % inh) [%] | IC50 [2] [nM] | inhibition at 3 µM ([2]; read-out: ROCK1 % inh) [%] | IC50 [3, 12] [nM] | IC50 [3, 13] [nM] | IC50 [4] [nM] | further results
CNC(C(=O)Nc1ccc2[nH]ncc2c1)c1ccccc1 (stereo not drawn) [Example 2, N-(1H-indazol-5-yl)-2-(methylamino)-2-phenylacetamide] | 21 | 98.7 | 25 | 98.8 | 304 | 304 | 885 | IC50 ([3]; pMLC in A7R5 cells, read-out: cellular ROCK inhibition IC50): 252 nM; pMypt (T853) levels, MYPT1 phosphorylation [5]: efficiently blocked; mature neuronal cell marker MAP2 expression [6]: significantly facilitated; neurite outgrowth [6]: improved; axonal support of oligodendrocyte (MBP / neurofilament staining) [7]: facilitated; cytoskeletal organization / myelin segments (neurofilament staining) [7]: producing many shorter ordered myelin segments; BBB penetrant property ([8]; 2 hours after dosing): excellent; concentration at 2 h ([8]; brain, IV 10 mg base/kg, read-out: Brain Concentration): 699 ng/g; concentration at 2 h ([8]; brain, PO 10 mg base/kg, read-out: Brain Concentration): 700 ng/g; concentration at 2 h ([8]; brain, PO 30 mg base/kg, read-out: Brain Concentration): 2860 ng/g; concentration at 2 h ([8]; brain, PO 100 mg base/kg, read-out: Brain Concentration): 19400 ng/g; Kp at 2 h ([8]; IV 10 mg base/kg): 3.31; Kp at 2 h ([8]; PO 10 mg base/kg): 1.73; Kp at 2 h ([8]; PO 30 mg base/kg): 2.04; Kp at 2 h ([8]; PO 100 mg base/kg): 2.08; concentration at 2 h ([8]; plasma, IV 10 mg base/kg, read-out: Plasma Concentration): 211 ng/mL; concentration at 2 h ([8]; plasma, PO 10 mg base/kg, read-out: Plasma Concentration): 405 ng/mL; concentration at 2 h ([8]; plasma, PO 30 mg base/kg, read-out: Plasma Concentration): 1400 ng/mL; concentration at 2 h ([8]; plasma, PO 100 mg base/kg, read-out: Plasma Concentration): 9290 ng/mL
CCNC(C(=O)Nc1ccc2[nH]ncc2c1)c1ccc(C)cc1 (stereo not drawn) [Example 30, 2-(ethylamino)-N-(1H-indazol-5-yl)-2-(p-tolyl)acetamide] | 13 | 98.8 | 16 | 99 | 502 |  | 960 | 
CNC(C(=O)Nc1ccc2[nH]ncc2c1)c1ccccc1Cl (stereo not drawn) [Example 47, 2-(2-chlorophenyl)-N-(1H-indazol-5-yl)-2-(methylamino)acetamide] | 135 |  | 8.3 |  | 461 | 461 | 659 | 
CCNC(C(=O)Nc1ccc2[nH]ncc2c1)c1cccc(Cl)c1 (stereo not drawn) [Example 58, 2-(3-chlorophenyl)-2-(ethylamino)-N-(1H-indazol-5-yl)acetamide] | 64 |  |  |  | 722 |  | 1090 | inhibition at 0.5 µM ([1]; @ 0.5 μM, read-out: ROCK2 % inh): 61%; inhibition at 0.5 µM ([2]; @ 0.5 μM, read-out: ROCK1 % inh): 85%
CN(C)CCOc1cc(-c2cn[nH]c2)ccc1NC(=O)C1COc2ccccc2O1 (stereo not drawn) [SR3677] |  |  |  |  |  |  |  | brain penetration ([10]; in vivo): lack of brain penetration; half-life ([10]; oral PK properties): < 1 h; F (oral) ([10]; oral): 5%; effect on sAPPP [11]: lowering sAPPP

Second part, led by results:

IC50 [1] [nM] | inhibition at 3 µM ([1]; read-out: ROCK2 % inh) [%] | IC50 [2] [nM] | inhibition at 3 µM ([2]; read-out: ROCK1 % inh) [%] | IC50 [3, 12] [nM] | IC50 [3, 13] [nM] | SMILES | IC50 [4] [nM] | further results
10 |  | 13 |  | 124 | 124 | CNC(C(=O)Nc1ccc2[nH]ncc2c1)c1ccc(Oc2cccc(OC)c2)cc1 (stereo not drawn) [Example 15, N-(1H-indazol-5-yl)-2-(4-(3-methoxyphenoxy)phenyl)-2-(methylamino)acetamide] | 219 | concentration at 0.25 h [9, 14]: 853 ng/g; concentration at 2 h ([9]; brain, 2.5 mg/kg, read-out: Mean Conc. at 2 hr, Brain): 288 ng/g; Kp at 0.25 h [9]: 2.17; Kp at 2 h [9]: 6.99; concentration at 0.25 h [9, 15]: 394 ng/mL; concentration at 2 h [9, 16]: 41.4 ng/mL
12 | 98.8 | 24 | 99 | 261 |  | CCNC(C(=O)Nc1ccc2[nH]ncc2c1)c1ccc(OC)cc1 (stereo not drawn) [Example 26, 2-(ethylamino)-N-(1H-indazol-5-yl)-2-(4-methoxyphenyl)acetamide] | 845 | 
17 |  | 3.2 |  | 304 |  | CNC(C(=O)Nc1ccc2[nH]ncc2c1)c1cccc(OC)c1 (stereo not drawn) [Example 41, N-(1H-indazol-5-yl)-2-(3-methoxyphenyl)-2-(methylamino)acetamide] | 539 | inhibition at 1 µM ([1]; @ 1 μM, read-out: ROCK2 % inh): 99.5%; Mean Conc. at 0.25 hr, Brain ([9]; 2.5 mg/kg): 541 ng/g; concentration at 0.25 h [9, 14]: 566 ng/g; Kp at 0.25 h [9]: 1.33; Kp at 2 h [9]: 8.41; concentration at 0.25 h [9, 15]: 427 ng/mL; concentration at 2 h [9, 16]: 2.14 ng/mL
16 |  | 8.8 |  | 454 |  | CNC(C(=O)Nc1ccc2[nH]ncc2c1)c1cccc(Cl)c1 (stereo not drawn) [Example 42, 2-(3-chlorophenyl)-N-(1H-indazol-5-yl)-2-(methylamino)acetamide] | 882 | 
